IC50 data for 32 molecules are collected here from patent publication US12011444B2, “N-substituted indole derivatives as PGE2 receptor modulators” (Idorsia Pharmaceuticals Ltd, priority 2015, dated 2024).

In one assay the target is PTGER2 (EP2) (Homo sapiens (Human), UniProt P43116). Description: hEP2 b-arrestin assay (PathHunter HEK 293 PTGER2 b-arrestin cells). Format: cell-based. The method in brief: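 HEK293 cells expressing ProLink-tagged EP2 and EA-fused β-arrestin 2 (enzyme fragment complementation) were seeded 24 h, pre-incubated with compound 15 min at 37 °C, then stimulated with 5 μM PGE2 (final) for 120 min.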
PTGER2 (EP2), sequence (P43116 whole entry, the tested form may be a part): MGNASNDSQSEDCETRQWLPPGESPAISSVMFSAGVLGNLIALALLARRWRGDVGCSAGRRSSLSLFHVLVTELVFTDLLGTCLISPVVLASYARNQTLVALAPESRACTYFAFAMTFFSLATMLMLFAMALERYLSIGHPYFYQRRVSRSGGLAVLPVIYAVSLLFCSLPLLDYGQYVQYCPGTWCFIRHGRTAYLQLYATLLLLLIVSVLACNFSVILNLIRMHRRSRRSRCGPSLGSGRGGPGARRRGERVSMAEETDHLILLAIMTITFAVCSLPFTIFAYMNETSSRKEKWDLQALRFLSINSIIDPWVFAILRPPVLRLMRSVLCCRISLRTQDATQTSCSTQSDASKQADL

In a further assay the target is PTRGER4 (EP4) (Homo sapiens (Human), UniProt P35408). As to the kind of experiment: hEP4 b-arrestin assay (PathHunter HEK 293 PTGER4 b-arrestin cells). Type of assay: cell-based. The method in brief:
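Stably transfected HEK293 cells carrying EP4–ProLink and β-arrestin 2–EA (β-gal fragment complementation), pre-incubated with compound 15 min at 37 °C, then stimulated with PGE2 (20 nM final) for 120 min at 37 °C. Chemiluminescence read after 1 h detection reagent at room temperature; activity per concentration expressed as percent of DMSO control.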

The mark [1] stands for this setting: hEP2 b-arrestin assay (values without asterisk).
Setting [2] is: hEP4 b-arrestin assay (values without asterisk).
Setting [3] is: antagonistic activity on hEP2, mean where measured multiple times.
The mark [4] stands for this setting: antagonistic activity on hEP4, mean where measured multiple times.

PTRGER4 (EP4), sequence (P35408 whole entry, looked up, the tested form may be a part): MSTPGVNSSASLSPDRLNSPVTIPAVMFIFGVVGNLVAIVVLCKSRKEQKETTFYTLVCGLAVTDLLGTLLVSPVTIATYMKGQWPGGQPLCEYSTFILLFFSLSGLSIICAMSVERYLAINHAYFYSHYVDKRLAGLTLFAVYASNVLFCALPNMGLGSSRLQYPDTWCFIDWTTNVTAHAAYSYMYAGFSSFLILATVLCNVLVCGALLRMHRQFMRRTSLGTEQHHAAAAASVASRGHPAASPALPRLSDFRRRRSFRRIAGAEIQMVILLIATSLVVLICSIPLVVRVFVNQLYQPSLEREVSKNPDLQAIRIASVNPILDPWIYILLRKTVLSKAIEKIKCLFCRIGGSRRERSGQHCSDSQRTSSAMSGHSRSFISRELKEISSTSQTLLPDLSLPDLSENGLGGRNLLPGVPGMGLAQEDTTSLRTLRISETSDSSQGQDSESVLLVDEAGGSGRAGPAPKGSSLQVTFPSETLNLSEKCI

The term IC50 denotes the point on the concentration scale where inhibition reaches its midpoint. Low readings indicate greater potency in that assay, high ones weaker potency in that assay. For the molecule `CCOc1cc(-c2cc(NCCn3c(C)cc4c(OC)ccc(F)c43)ncn2)sc1CC(=O)O` [Example 847, (3-Ethoxy-5-{6-[2-(7-fluoro-4-methoxy-2-methyl-indol-1-yl)-ethylamino]-pyrimidin-4-yl}-thiophen-2-yl)-acetic acid], the results for the half-inhibitory concentration (IC50) against PTGER2 (EP2) (setting [1]) and against PTRGER4 (EP4) (setting [2]) were 35 nM and 309 nM, respectively.

With `Cc1cc(F)cc2c1cc(C)n2CCNc1cc(-c2ccc3[nH]c(C(F)(F)F)nc3c2)ncn1` [compound 297], the IC50 at PTGER2 (EP2) (setting [3]) worked out at 539 nM; against PTRGER4 (EP4) (setting [4]), 814 nM.

On to `COc1ccc(F)c2c1cc(C#N)n2CCNc1cc(-c2ccc(C(=O)O)c(OC(F)F)c2)ncn1` [Example 917, 4-{6-[2-(2-Cyano-7-fluoro-4-methoxy-indol-1-yl)-ethylamino]-pyrimidin-4-yl}-2-difluoromethoxy-benzoic acid], for which the IC50 against PTGER2 (EP2) (setting [1]) was found to be 24 nM; against PTRGER4 (EP4) (setting [2]), 35 nM.

For the molecule `CCOc1cc(-c2cc(NCCn3c(C)cc4c(OC)ccc(F)c43)ncn2)ccc1C(=O)O` [Example 326, 2-ethoxy-4-{6-[2-(7-fluoro-4-methoxy-2-methyl-indol-1-yl)-ethylamino]-pyrimidin-4-yl}-benzoic acid], the concentration for half-maximal inhibition (IC50) against PTGER2 (EP2) (setting [3]) was 18 nM; against PTRGER4 (EP4) (setting [4]) it was 224 nM.

Consider `Cc1cc2c(F)ccc(F)c2n1CCNc1cc(-c2ccc(C(=O)O)c(CCC(C)C)c2)ncn1` [compound 367, 4-{6-[2-(4,7-Difluoro-2-methyl-indol-1-yl)-ethylamino]-pyrimidin-4-yl}-2-(3-methyl-butyl)-benzoic acid], for which the 50% inhibitory concentration (IC50) against PTGER2 (EP2) (setting [3]) was found to be 14 nM; on PTRGER4 (EP4) (setting [4]), 961 nM.

As to `Cc1ccc(F)c2c1cc(C)n2CCNc1cc(-c2ccc3c(c2)CC(=O)N3)ncn1` [compound 64, 5-{6-[2-(7-Fluoro-2,4-dimethyl-indol-1-yl)-ethylamino]-pyrimidin-4-yl}-1,3-dihydro-indol-2-one], the concentration for half-maximal inhibition (IC50) was determined as 47 nM at PTGER2 (EP2) (setting [3]) and 231 nM against PTRGER4 (EP4) (setting [4]).

With `CCOc1cc(-c2cc(NCCn3c(C#N)cc4c(OC)ccc(F)c43)ncn2)sc1C(=O)NCCOC` [Example 1028, 5-{6-[2-(2-Cyano-7-fluoro-4-methoxy-indol-1-yl)-ethylamino]-pyrimidin-4-yl}-3-ethoxy-thiophene-2-carboxylic acid (2-methoxy-ethyl)-amide], the concentration for half-maximal inhibition (IC50) is 9 nM against PTGER2 (EP2) (setting [1]) and 2 nM at PTRGER4 (EP4) (setting [2]).

As to `COc1ccc(F)c2c1cc(C#N)n2CCNc1cc(-c2ccnc(OC(F)F)c2)ncn1` [Example 1006, 1-{2-[6-(2-Difluoromethoxy-pyridin-4-yl)-pyrimidin-4-ylamino]-ethyl}-7-fluoro-4-methoxy-1H-indole-2-carbonitrile], the IC50 came out at 131 nM on PTGER2 (EP2) (setting [1]) and 450 nM on PTRGER4 (EP4) (setting [2]).

For the molecule `CCOc1cc(-c2cc(NCCn3c(C#N)cc4c(OC)ccc(F)c43)ncn2)sc1C(=O)O` [Example 805, 5-{6-[2-(2-cyano-7-fluoro-4-methoxy-indol-1-yl)-ethylamino]-pyrimidin-4-yl}-3-ethoxy-thiophene-2-carboxylic acid], the half-maximal inhibitory concentration (IC50) against PTGER2 (EP2) (setting [1]) was 4 nM; at PTRGER4 (EP4) (setting [2]) it was 5 nM.

Turning to `CCOc1cc(-c2cc(NCCn3c(C#N)cc4c(C)cc(F)c(F)c43)ncn2)sc1C(=O)O` [Example 942, 5-{6-[2-(2-Cyano-6,7-difluoro-4-methyl-indol-1-yl)-ethylamino]-pyrimidin-4-yl}-3-ethoxy-thiophene-2-carboxylic acid], the IC50 on PTGER2 (EP2) (setting [1]) was found to be 3 nM; against PTRGER4 (EP4) (setting [2]), 6 nM.

For the molecule `Cc1cc(F)cc2c1cc(C)n2CCNc1cc(-c2ccc(-c3ccon3)cc2)ncn1` [compound 94, [2-(6-Fluoro-2,4-dimethyl-indol-1-yl)-ethyl]-[6-(4-isoxazol-3-yl-phenyl)-pyrimidin-4-yl]-amine], the IC50 on PTGER2 (EP2) (setting [3]) is 30 nM; on PTRGER4 (EP4) (setting [4]), 299 nM.

Consider `COc1cc(F)cc2c1cc(C)n2CCNc1cc(-c2cc(O)c(C(=O)O)s2)ncn1` [Example 800, 5-{6-[2-(6-Fluoro-4-methoxy-2-methyl-indol-1-yl)-ethylamino]-pyrimidin-4-yl}-3-hydroxy-thiophene-2-carboxylic acid], for which the figures for the IC50 against PTGER2 (EP2) (setting [1]) and on PTRGER4 (EP4) (setting [2]) were 12 nM and 44 nM, respectively.

As to `CCCC1NC(=O)c2ccc(-c3cc(NCCn4c(C)cc5c(C)ccc(F)c54)ncn3)cc21` (racemic) [compound 322], the IC50 came to 55 nM against PTGER2 (EP2) (setting [3]) and 295 nM at PTRGER4 (EP4) (setting [4]).

`CCOc1cc(-c2cc(NCCn3c(C#N)cc4c(OC)ccc(F)c43)ncn2)sc1C(=O)NC(C)C` [Example 1027, 5-{6-[2-(2-Cyano-7-fluoro-4-methoxy-indol-1-yl)-ethylamino]-pyrimidin-4-yl}-3-ethoxy-thiophene-2-carboxylic acid isopropylamide]: the IC50 stood at 39 nM on PTGER2 (EP2) (setting [1]) and 3 nM against PTRGER4 (EP4) (setting [2]).

In the case of `COc1ccc(F)c2c1cc(C#N)n2CCNc1cc(-c2c(C)noc2C)ncn1` [Example 993, 1-{2-[6-(3,5-Dimethyl-isoxazol-4-yl)-pyrimidin-4-ylamino]-ethyl}-7-fluoro-4-methoxy-1H-indole-2-carbonitrile], the concentration for half-maximal inhibition (IC50) was 80 nM against PTGER2 (EP2) (setting [1]) and 344 nM against PTRGER4 (EP4) (setting [2]).

With `COc1ccc(F)c2c1cc(C#N)n2CCNc1cc(-c2ccnc(C3CC3)c2)ncn1` [Example 986, 1-{2-[6-(2-Cyclopropyl-pyridin-4-yl)-pyrimidin-4-ylamino]-ethyl}-7-fluoro-4-methoxy-1H-indole-2-carbonitrile], the concentration for half-maximal inhibition (IC50) at PTGER2 (EP2) (setting [1]) worked out at 9 nM; against PTRGER4 (EP4) (setting [2]), 66 nM.

`CCOc1cc(-c2cc(NCCn3c(C)c(F)c4c(OC)ccc(F)c43)ncn2)sc1C(=O)O` [Example 1057, 5-{6-[2-(3,7-Difluoro-4-methoxy-2-methyl-indol-1-yl)-ethylamino]-pyrimidin-4-yl}-3-ethoxy-thiophene-2-carboxylic acid]: the results for the IC50 against PTGER2 (EP2) (setting [1]) and against PTRGER4 (EP4) (setting [2]) were 6 nM and 9 nM, respectively.

Turning to `COc1cccc2c1cc(C)n2CCNc1cc(-c2ccc(CN)c(F)c2)ncn1` [compound 24], the concentration for half-maximal inhibition (IC50) was found to be 94 nM at PTGER2 (EP2) (setting [3]) and 895 nM on PTRGER4 (EP4) (setting [4]).

Turning to `COc1ccc(F)c2c1cc(C#N)n2CCNc1cc(-c2ccc(-c3nc(=O)[nH]o3)cc2)ncn1` [Example 831, 7-Fluoro-1-(2-{6-[4-(3-oxo-2,3-dihydro-[1,2,4]-oxadiazol-5-yl)-phenyl]-pyrimidin-4-ylamino}-ethyl)-4-methoxy-1H-indole-2-carbonitrile], the half-maximal inhibitory concentration (IC50) was 19 nM against PTGER2 (EP2) (setting [1]) and 17 nM on PTRGER4 (EP4) (setting [2]).

Turning to `Cc1cccc2c1cc(C)n2CCNc1cc(-c2ccc(C(=O)O)c(CC(C)C)c2)ncn1` [compound 140, 4-{6-[2-(2,4-Dimethyl-indol-1-yl)-ethylamino]-pyrimidin-4-yl}-2-isobutyl-benzoic acid], the IC50 on PTGER2 (EP2) (setting [3]) turned out to be 11 nM; against PTRGER4 (EP4) (setting [4]) it was 476 nM.

For `Cc1cc(F)cc2c1cc(C)n2CCNc1cc(-c2ccc(-c3ccns3)cc2)ncn1` [compound 84], the values for the 50% inhibitory concentration (IC50) on PTGER2 (EP2) (setting [3]) and at PTRGER4 (EP4) (setting [4]) were 89 nM and 310 nM, respectively.

For the molecule `CSc1cc(-c2cc(NCCn3c(C)cc4c(Cl)ccc(Cl)c43)ncn2)ccc1C(=O)O` [compound 221], the results for the IC50 on PTGER2 (EP2) (setting [3]) and at PTRGER4 (EP4) (setting [4]) were 9 nM and 902 nM, respectively.

For the molecule `COc1ccc(F)c2c1cc(C#N)n2CCNc1cc(-c2ccc(-c3cn(C)c(C4CC4)n3)cc2)ncn1` [Example 827, 1-(2-{6-[4-(2-Cyclopropyl-1-methyl-1H-imidazol-4-yl)-phenyl]-pyrimidin-4-ylamino}-ethyl)-7-fluoro-4-methoxy-1H-indole-2-carbonitrile], the figures for the IC50 against PTGER2 (EP2) (setting [1]) and against PTRGER4 (EP4) (setting [2]) were 16 nM and 7 nM, respectively.

In the case of `COc1ccc(F)c2c1cc(C#N)n2CCNc1cc(-c2ccc(C3(OC)COC3)s2)ncn1` [Example 860, 7-Fluoro-4-methoxy-1-(2-{6-[5-(3-methoxy-oxetan-3-yl)-thiophen-2-yl]-pyrimidin-4-ylamino}-ethyl)-1H-indole-2-carbonitrile], the figures for the IC50 at PTGER2 (EP2) (setting [1]) and against PTRGER4 (EP4) (setting [2]) were 421 nM and 121 nM, respectively.

Take `Cc1cc(F)cc2c1cc(C)n2CCNc1cc(-c2ccc(-c3cc(O)no3)cc2)ncn1` [compound 200, 5-(4-{6-[2-(6-Fluoro-2,4-dimethyl-indol-1-yl)-ethylamino]-pyrimidin-4-yl}-phenyl)-isoxazol-3-ol]: the concentration for half-maximal inhibition (IC50) against PTGER2 (EP2) (setting [3]) came out at 37 nM; against PTRGER4 (EP4) (setting [4]) it was 111 nM.

As to `CCOc1cc(-c2cc(NCCn3c(C#N)cc4c(C)ccc(F)c43)ncn2)sc1C(=O)O` [Example 891, 5-{6-[2-(2-Cyano-7-fluoro-4-methyl-indol-1-yl)-ethylamino]-pyrimidin-4-yl}-3-ethoxy-thiophene-2-carboxylic acid], the figures for the IC50 against PTGER2 (EP2) (setting [1]) and at PTRGER4 (EP4) (setting [2]) were 6 nM and 3 nM, respectively.

In the case of `CCOc1cc(-c2cc(NCCn3c(C)cc4c(F)ccc(F)c43)ncn2)ccc1C(=O)O` [compound 154, 4-{6-[2-(4,7-Difluoro-2-methyl-indol-1-yl)-ethylamino]-pyrimidin-4-yl}-2-ethoxy-benzoic acid], the values for the 50% inhibitory concentration (IC50) on PTGER2 (EP2) (setting [3]) and against PTRGER4 (EP4) (setting [4]) were 1 nM and 628 nM, respectively.

In the case of `CCc1cc(-c2cc(NCCn3c(C)cc4c(OC)cccc43)ncn2)ccc1C(=O)O` [compound 223], the half-inhibitory concentration (IC50) against PTGER2 (EP2) (setting [3]) turned out to be 8 nM; at PTRGER4 (EP4) (setting [4]), 702 nM.

As for `CNc1cc(-c2cc(NCCn3c(C)cc4c(F)ccc(C)c43)ncn2)ccc1C(=O)O` [compound 211], the half-maximal inhibitory concentration (IC50) was 2 nM at PTGER2 (EP2) (setting [3]) and 394 nM against PTRGER4 (EP4) (setting [4]).

Consider `CCOc1cc(-c2cc(NCCn3c(C)cc4c(F)c(F)ccc43)ncn2)sc1C(=O)O` [compound 235], for which the IC50 against PTGER2 (EP2) (setting [3]) is 2 nM; at PTRGER4 (EP4) (setting [4]) it was 60 nM.

In the case of `Cc1ccc(F)c2c1cc(C)n2CCNc1cc(-c2ccc3c(c2)CN(C)C3=O)ncn1` [compound 95], the IC50 on PTGER2 (EP2) (setting [3]) came out at 59 nM; at PTRGER4 (EP4) (setting [4]), 167 nM.

With `CCOc1cc(-c2cc(NCCn3c(C)cc4c(OC)ccc(F)c43)ncn2)ccc1S(N)(=O)=O` [compound 377], the results for the concentration for half-maximal inhibition (IC50) on PTGER2 (EP2) (setting [3]) and against PTRGER4 (EP4) (setting [4]) were 51 nM and 697 nM, respectively.
